What all share (assay): NCI-60 cell line screen, 48 h
For test [1], the system named is 786-0 renal.
Test [2] has as its system A498 renal.
Test [3] has as its system BT-549 breast.
For test [4], the system named is CAKI-1 renal.
The subject of test [5] is COLO 205 colon.
Test [6] has as its system HOP-92 NSCLC.
Test [7] deals with HS 578T breast.
For test [8], the system named is K-562 leukemia.
Test [9] deals with M14 melanoma.
Test [10] concerns MOLT-4 leukemia.
Test [11] concerns NCI-H226 lung.
Test [12] deals with NCI-H460 lung.
In test [13] the test system is NCI/ADR-RES ovarian.
The test system of test [14] is SF-268 CNS.
Test [15] concerns SK-MEL-28 melanoma.
Test [16] concerns SK-MEL-5 melanoma.
The subject of test [17] is SK-OV-3 ovarian.
For test [18], the system named is SNB-75 CNS.
For test [19], the system named is U251 CNS.
Test [20] deals with UACC-257 melanoma.

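Cells were grown in 96-well plates and exposed to each compound for 48 hours at five concentrations; endpoints were interpolated linearly between bracketing concentrations, or set to the highest concentration if not reached. TGI is the concentration that stops growth completely.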

Consider `COc1ccc(/C=C(/c2ccccc2)c2c(C)cc(C)c(/C(=C\c3ccc(OC)cc3)c3ccccc3)c2N=Nc2cc(C)cc(C)c2)cc1`, for which the TGI in [1] was > 100 µM; in test [2], > 100 µM; in test [3], > 100 µM; in test [4] it was > 100 µM; in test [5] it was 24.3 µM; in test [6], > 100 µM. Besides, the TGI in [7] was > 100 µM; in [8] it was > 100 µM; in test [9] it was > 100 µM; in [10], > 100 µM; in test [11] it was > 100 µM; in [12], > 75.2 µM. For the same compound, the TGI is > 100 µM in test [13]; > 100 µM in [14]; > 100 µM in [15]; 37.6 µM in [16]; > 100 µM in test [17]; 34.2 µM in test [18]. Also, the TGI was > 100 µM in test [19] and 18.8 µM in test [20].

As to `O=c1[nH]c(=O)n2n1C1C=CC2CC1`, the TGI in test [1], in test [2], in test [3], in test [4], in test [5] and in test [6] was > 100 µM each time. For the same compound, the TGI in test [7], in test [8], in test [9], in test [10], in [11] and in [12] was > 100 µM throughout. The TGI in [13], in test [14], in test [15], in test [16], in test [17] and in test [18] was > 100 µM throughout. In addition, the TGI in [19] and in [20] was > 100 µM in each case.

Turning to `Cc1cc(C)c2c(=O)cc(-c3ccc4ccccc4c3)[nH]c2n1`, the TGI in test [1] was > 100 µM; in test [2] it was 24.1 µM; in test [3] it was > 100 µM; in [4] it was > 100 µM; in [5], 48.1 µM; in [6] it was 78.8 µM. Besides, the TGI in test [7] is > 100 µM; in test [8] it was 4.26 µM; in test [9] it was 67.5 µM; in [10] it was 12.9 µM; in test [11], > 100 µM; in test [12] it was > 100 µM. Also, the TGI in [13] is > 63.9 µM; in test [14] it was > 100 µM; in [15], > 100 µM; in test [16], 9.42 µM; in [17] it was > 100 µM; in test [18], > 90.7 µM. Moreover, the figures for the TGI in test [19] and in test [20] were 65.7 µM and > 59.6 µM, respectively.

For `CC(=O)OC(=C(C#N)C#N)c1nccnc1C(C)=O`, the TGI in test [1] is > 20 µM; in [2] it was > 20 µM; in test [3], > 20 µM; in [4], > 20 µM; in [5] it was 11.5 µM; in test [6], > 20 µM. Moreover, the TGI in [7] was > 20 µM; in [8] it was > 20 µM; in test [9] it was 11.8 µM; in test [10], > 20 µM; in [11] it was 13.7 µM; in [12], > 20 µM. Moreover, the TGI is > 20 µM in test [13]; 7.67 µM in [14]; > 20 µM in [15]; > 20 µM in [16]; > 20 µM in test [17]; 18.6 µM in test [18]. Moreover, the TGI in test [19] and in test [20] was > 20 µM in each case.

With `CC(=O)C1=C(C)N(c2ccccc2)C2(O)C=CC(=O)C3=C(O)c4ccccc4C(=O)C312` (stereo not given), the TGI in test [1] is > 100 µM; in test [2] it was 39.4 µM; in test [3], 31.8 µM; in test [4], 33.3 µM; in [5], 36.8 µM; in test [6] it was 63.9 µM. The TGI in [7] was > 100 µM; in test [8] it was > 100 µM; in test [9], 58.8 µM; in test [10], > 100 µM; in test [11], 59.2 µM; in test [12], > 100 µM. The TGI was 37.5 µM in test [13]; 57.8 µM in test [14]; 52.2 µM in test [15]; 24.9 µM in test [16]; > 100 µM in [17]; > 100 µM in [18]. For the same compound, the values for the TGI in [19] and in test [20] were 40.7 µM and 21 µM, respectively.

`Cc1cc(=O)c2ccccc2n1CCCCCCCCCCn1c(C)cc(=O)c2ccccc21`: the TGI in test [1] turned out to be 30.4 µM; in [2], 28.9 µM; in test [3] it was 23 µM; in test [4], 36.1 µM; in test [5], 51.9 µM; in test [6], 38.5 µM. For the same compound, the TGI in test [7] is 47.7 µM; in test [8] it was 17.9 µM; in [9] it was > 100 µM; in test [10] it was 21.7 µM; in [11], 46.1 µM; in test [12], 87.4 µM. The TGI is > 100 µM in [13]; 89.4 µM in test [14]; 35.1 µM in test [15]; 6.27 µM in test [16]; 35.3 µM in test [17]; 87 µM in test [18]. The TGI in test [19] turned out to be 29 µM; in [20], 25.2 µM.

As for `COc1ccccc1/C=C/c1nc2ccccc2o1`, the TGI in test [1], in test [2], in test [3], in test [4], in [5] and in test [6] was > 10 µM throughout. In addition, the TGI in test [7], in test [8], in test [9], in test [10], in test [11] and in [12] was > 10 µM throughout. For the same compound, the TGI in test [13], in [14], in [15], in test [16], in [17] and in test [18] was > 10 µM in each case. The TGI in [19] and in test [20] was > 10 µM each time.
